Values after ≈ are worked out from the molar mass of the structure shown.
Columns and labels:
[1] = tested on: Staphylococcus aureus (ATCC29213); assay: Microtitre plate IC90 determination against non-mycobacterial strains: S. aureus; type: cell-based; settings: 90% inhibitory concentration for bacterial growth, 37° C., resazurin fluorescence; for IC90 STA 1 B29213: 24 hours; for IC90: Staphylococcus aureus, ATCC29213, 24 h, read-out: IC90 STA 1 B29213
Method: (§1) The bacteria used in this study were grown overnight in flasks containing 100 ml Mueller-Hinton Broth (Becton Dickinson-cat. no. 275730) in sterile de-ionized water, with shaking, at 37° C. Stocks (0.5 ml/tube) were stored at -70° C. until use. Bacteria titrations were performed in microtiter plates to detect the TCID50, in which the TCID50 represents the dilution that gives rise to bacterial growth in 50% of inoculated cultures. In general, an inoculum level of approximately 100 TCID50 was used for susceptibility testing. […] Therefore resazurin (0.6 mg/ml) was added in a volume of 20 μl to all wells 3 hours after inoculation, and the plates were re-incubated overnight. A change in colour from blue to pink indicated the growth of bacteria.

[2] = tested on: Streptococcus pneumoniae (ATCC6305); assay: Microtitre plate IC90 determination against non-mycobacterial strains: S. pneumoniae; type: cell-based; settings: 90% inhibitory concentration for bacterial growth, 37° C., resazurin fluorescence; for IC90 SPN 1 6305: 24 hours; for IC90: Streptococcus pneumoniae, ATCC6305, 24 h, read-out: IC90 SPN 1 6305
Method: as §1

[3] = tested on: Mycobacterium tuberculosis (strain H37RV); assay: In-vitro method for testing compounds against M. tuberculosis; type: cell-based; settings: 90% inhibitory concentration for bacterial growth, 7 days, 37° C., Resazurin fluorescence
M. smegmatis ATCC607 = assay: In-vitro anti-bacterial activity against strain M. smegmatis ATCC607; settings: for IC90 MSM 1 ATCC607: 90% inhibitory concentration for bacterial growth, 48 hours, 37° C., Alamar Blue fluorescence; for IC90: Mycolicibacterium smegmatis, ATCC607, 48 h, read-out: IC90 MSM 1 ATCC607, 90% inhibitory concentration for bacterial growth, 37° C., Alamar Blue fluorescence
Method: Flat-bottom, sterile 96-well plastic microtiter plates were filled with 180 μl of sterile deionized water, supplemented with 0.25% BSA. Subsequently, stock solutions (7.8× final test concentration) of compounds were added in 45 μl volumes to a series of duplicate wells in column 2 so as to allow evaluation of their effects on bacterial growth. Serial five-fold dilutions (45 μl in 180 μl) were made directly in the microtiter plates from column 2 to 11 using a customised robot system (Zymark Corp., Hopkinton, Mass.). Pipette tips were changed after every 3 dilutions to minimize pipetting errors with high hydrophobic compounds. Untreated control samples with (column 1) and without (column 12) inoculum were included in each microtiter plate. Approximately 250 CFU per well of bacteria inoculum, in a volume of 100 μl in 2.8× Mueller-Hinton broth medium, was added to the rows A to H, except column 12. The same volume of broth medium without inoculum was added to column 12 in row A to H. The cultures were incubated at 37° C. for 48 hours in a humidified 5% CO2 atmosphere (incubator with open air valve and continuous ventilation). At the end of incubation, two days after inoculation, the bacterial growth was quantitated fluorometrically. Therefore Alamar Blue (10×) was added to all wells in a volume of 20 μl and plates were incubated for another 2 hours at 50° C.
The fluorescence was read in a computer-controlled fluorometer (Cytofluor, Biosearch) at an excitation wavelength of 530 nm and an emission wavelength of 590 nm (gain 30). The percentage growth inhibition achieved by the compounds was calculated according to standard methods and expressed as IC90 (μg/ml) which defines the 90% inhibitory concentration for bacterial growth.

SMILES | IC90 STA 1 B29213 [1] | IC90 SPN 1 6305 [2] | IC90 MTB 1 H37RV [3] | IC90 MSM 1 ATCC607 (M. smegmatis ATCC607) | IC90 [1] | IC90 [2] | IC90 ([3]; Mycobacterium tuberculosis, H37RV, 168 h, read-out: IC90 MTB 1 H37RV) | IC90 (M. smegmatis ATCC607) | melting point
COc1nc2ccc(Br)cc2cc1C(c1ccccc1)C(O)(CCCCN(C)C(=N)N)c1ccccc1 (single isomer, unassigned) [Compound 2] | 1.8 µg/mL (≈ 3.21 µM) | 2.2 µg/mL (≈ 3.92 µM) | 2.5 µg/mL (≈ 4.45 µM) | 1.8 µg/mL (≈ 3.21 µM) | – | – | – | – | –
COc1nc2ccc(Br)cc2cc1C(c1ccccc1)C(O)(CCCCN(C)C(=N)N)c1ccccc1 (single isomer, unassigned) [Compound 1] | – | – | – | – | 2 µg/mL (≈ 3.56 µM) | 2.2 µg/mL (≈ 3.92 µM) | 4 µg/mL (≈ 7.12 µM) | 1.8 µg/mL (≈ 3.21 µM) | –
COc1nc2ccc(Br)cc2cc1C(c1ccccc1)C(O)(CCCCN1CCC(N2CCCCC2)CC1)CCc1ccccc1 (single isomer, unassigned) [Compound 11] | 10.9 µg/mL (≈ 15.9 µM) | 10.9 µg/mL (≈ 15.9 µM) | – | 12.2 µg/mL (≈ 17.8 µM) | – | – | – | – | 164 °C
COc1nc2ccc(Br)cc2cc1C(c1ccccc1)C(O)(CCCCN1CC2CC1CN2Cc1ccccc1)CCCc1ccccc1 (single isomer, unassigned) [Compound 14] | – | – | – | – | 11.4 µg/mL (≈ 15.9 µM) | 2.6 µg/mL (≈ 3.62 µM) | – | 3.6 µg/mL (≈ 5.01 µM) | –
COc1nc2ccc(Br)cc2cc1C(c1ccccc1)C(O)(CCCCN(C)CCc1ccccn1)c1ccccc1 (centres unmarked) [Compound 7] | 2.0 µg/mL (≈ 3.2 µM) | 2.0 µg/mL (≈ 3.2 µM) | – | 2.0 µg/mL (≈ 3.2 µM) | – | – | – | – | –
CN1CCCN(CCCCC(O)(c2ccc3ccccc3c2)C(c2ccccc2)c2cc3cc(Br)ccc3[nH]c2=O)CC1 (single isomer, unassigned) [Compound 50] | 10.1 µg/mL (≈ 15.8 µM) | – | – | 2.3 µg/mL (≈ 3.6 µM) | – | 4.5 µg/mL (≈ 7.05 µM) | – | – | 210 °C
COc1nc2ccccc2cc1C(c1ccccc1)C(O)(CCCCN1CC2CC1CN2)c1ccc2ccccc2c1 (single isomer, unassigned) [Compound 18] | – | – | – | – | 1.8 µg/mL (≈ 3.23 µM) | 1.8 µg/mL (≈ 3.23 µM) | – | 1.8 µg/mL (≈ 3.23 µM) | –
COc1nc2ccc(Br)cc2cc1C(c1ccccc1)C(O)(CCCCN1CC2CC1CN2CCc1ccccc1)c1ccc2ccccc2c1 (single isomer, unassigned) [Compound 25] | 2.3 µg/mL (≈ 3.1 µM) | 0.5 µg/mL (≈ 0.675 µM) | – | 1.7 µg/mL (≈ 2.29 µM) | – | – | – | – | 137 °C
COc1nc2ccccc2cc1C(c1ccccc1)C(O)(CCCCN1CC2CC1CN2)c1ccc2ccccc2c1 (single isomer, unassigned) [Compound 19] | 1.8 µg/mL (≈ 3.23 µM) | 2.2 µg/mL (≈ 3.94 µM) | – | 1.6 µg/mL (≈ 2.87 µM) | – | – | – | – | –
COc1nc2ccc(Br)cc2cc1C(c1ccccc1)C(O)(CCCCN(C)C1CCN(C)CC1)c1ccccc1 (single isomer, unassigned) [Compound 5] | 7.8 µg/mL (≈ 12.6 µM) | 2.0 µg/mL (≈ 3.24 µM) | – | 2.0 µg/mL (≈ 3.24 µM) | – | – | – | – | –
COc1nc2ccc(Br)cc2cc1C(c1ccccc1)C(O)(CCCCN1CCN(C2CCN(Cc3ccccc3)C2)CC1)c1ccc2ccccc2c1 (single isomer, unassigned) [Compound 30] | 2.5 µg/mL (≈ 3.19 µM) | 2.5 µg/mL (≈ 3.19 µM) | – | 2.5 µg/mL (≈ 3.19 µM) | – | – | – | – | –
COc1nc2ccc(Br)cc2cc1C(c1ccccc1)C(O)(CCCCN1CC2CC1CN2CC(C)C)c1ccc2ccccc2c1 (centres unmarked) [Compound 52] | – | – | – | – | 2.2 µg/mL (≈ 3.18 µM) | 0.5 µg/mL (≈ 0.722 µM) | – | 2.2 µg/mL (≈ 3.18 µM) | –
COc1nc2ccc(Br)cc2cc1C(c1ccccc1)C(O)(CCCCN(C)CCc1ccccn1)c1ccccc1 (centres unmarked) [Compound 9] | 2.0 µg/mL (≈ 3.2 µM) | 2.2 µg/mL (≈ 3.52 µM) | – | 2.0 µg/mL (≈ 3.2 µM) | – | – | – | – | –
COc1nc2ccc(Br)cc2cc1C(c1ccccc1)C(O)(CCCCNC1CC2CCC1C2)c1ccc2ccccc2c1 (single isomer, unassigned) [Compound 38] | – | – | – | – | 10.3 µg/mL (≈ 15.9 µM) | 2.6 µg/mL (≈ 4 µM) | – | 2.1 µg/mL (≈ 3.23 µM) | –
COc1nc2ccc(Br)cc2cc1C(c1ccccc1)C(O)(CCCCN(C)CCN(C)C)c1ccccc1 (single isomer, unassigned) [Compound 51] | – | – | – | – | 9.4 µg/mL (≈ 15.9 µM) | 9.4 µg/mL (≈ 15.9 µM) | – | 9.4 µg/mL (≈ 15.9 µM) | –
COc1nc2ccc(Br)cc2cc1C(c1ccccc1)C(O)(CCCCN1CCC1)c1ccccc1 (single isomer, unassigned) [Compound 42] | 8.6 µg/mL (≈ 15.8 µM) | 4.3 µg/mL (≈ 7.88 µM) | – | 2.2 µg/mL (≈ 4.03 µM) | – | – | – | – | –
